Measured values from PubChem BioAssay (NCI).
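1) Cells in 96-well plates. 2) Compound, 48 h, 5 concentrations. 3) Linear interpolation between surrounding doses. 4) Unreached endpoint = highest concentration. At the GI50, growth is halved. TGI: total growth inhibition.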

Columns and labels:
Assay in all cases: growth of human tumour cells (NCI), 48 h
OVCAR-8 ovarian = test system: OVCAR-8 ovarian
ACHN renal = test system: ACHN renal
NCI-H23 lung = test system: NCI-H23 lung
EKVX NSCLC = test system: EKVX NSCLC
OVCAR-3 ovarian = test system: OVCAR-3 ovarian
NCI-H460 lung = test system: NCI-H460 lung
KM20L2 colon = test system: KM20L2 colon
IGROV1 ovarian = test system: IGROV1 ovarian
LOX IMVI melanoma = test system: LOX IMVI melanoma
LXFL 529 NSCLC = test system: LXFL 529 NSCLC

Row | SMILES | TGI (OVCAR-8 ovarian) [µM] | TGI (ACHN renal) [µM] | TGI (NCI-H23 lung) [µM] | TGI (EKVX NSCLC) [µM] | TGI (OVCAR-3 ovarian) [µM] | TGI (NCI-H460 lung) [µM] | TGI (KM20L2 colon) [µM] | TGI (IGROV1 ovarian) [µM] | TGI (LOX IMVI melanoma) [µM] | TGI (LXFL 529 NSCLC) [µM] | GI50 (OVCAR-8 ovarian) [µM] | GI50 (ACHN renal) [µM] | GI50 (NCI-H23 lung) [µM] | GI50 (EKVX NSCLC) [µM] | GI50 (OVCAR-3 ovarian) [µM] | GI50 (NCI-H460 lung) [µM] | GI50 (KM20L2 colon) [µM] | GI50 (IGROV1 ovarian) [µM] | GI50 (LXFL 529 NSCLC) [µM]
1 | CCC(=O)CC(=O)CCC(=O)Nc1cc(C)ccc1C | > 100 | > 100 | > 100 | > 100 | > 100 | > 100 | > 100 | > 100 | > 100 | > 100 |  |  |  |  |  |  |  |  | 
2 | CN1CC(=O)N2Cc3ccccc3-n3cccc3C2C1 (centres undefined) | > 100 | > 100 | > 100 | > 100 | > 100 | > 100 | > 100 | > 100 | > 100 | > 100 |  |  |  |  |  |  |  |  | 
3 | CCCCOC(=O)CNC(=O)OC/C=C/C#CC#C/C=C/COC(=O)NCC(=O)OCCCC | > 100 | > 100 | > 100 | > 100 | > 100 | > 100 | > 100 | > 100 | > 10 | > 100 | > 100 | > 100 | > 100 | > 100 | > 100 | > 100 | > 100 | > 100 | > 100
4 | CC(=O)CCn1ncc(Cl)c(Cl)c1=O | 54.9 | 30.9 | 32.6 | 36.1 | 27.5 | 42.2 | 36.2 | 35.9 | 30.5 | 27.3 |  |  |  |  |  |  |  |  | 
5 | Nc1nc(Cl)cc(NCCCCCCCCNc2cc(Cl)nc(N)n2)n1 | 58.6 | 0.735 | > 100 | > 100 | > 100 | > 100 | > 100 | > 100 | 34.7 | 27.1 |  |  |  |  |  |  |  |  | 
